Measurements reported in publication PMC11766867, “Novel 2-Thiazolylhydrazone with Druggable Properties for Antifungal Application” (Journal of Fungi, 2025).
In brackets after ≈: the same amount, converted by molar mass. Read-outs that look alike come from different tables or passages of the source.

Assays:
[1] = test system: chorioallantoic membrane; assay: HET-CAM assay (Hen's Egg Test on the Chorioallantoic Membrane), German protocol; assay type: in vivo, Gallus gallus domesticus; conditions: RW3 at 100 µM; for Irritation Score: 300 µL on chorioallantoic membrane, 300 s, mean of six eggs; for Classification (irritation potential): HET-CAM, German protocol
Method: Gallus gallus domesticus eggs (n = 3) at the eighth day of embryonic development were incubated at 37 ± 2 °C and 50% humidity until the test. On the tenth day, the solutions of RW3 (100 µM), 1% DMSO in saline (diluent), 0.1 mol/L NaOH (positive control), and saline solution (negative control) were placed on the chorioallantoic membrane. Following the application of 300 µL of each solution, according to the German protocol, the changes in the membrane were recorded for 300 s, indicating the time of onset of each observed phenomenon (hemorrhage, lysis, and coagulation) and using the following formula to calculate the Irritation Score (IS) (Equation (1)). Each experiment was repeated two times.IS = (301 − sH)/300 × 5 + (301 − sL)/300 × […] + (301 − sC)/300 × 9,(1) where H = hemorrhage, L—lysis, C = coagulation, and s = start second.
Additionally, to assess the possibility of irritation caused by RW3, the Hen’s Egg Test on the Chorioallantoic Membrane (HET-CAM) was performed. The HET-CAM assay is an in vivo semiquantitative test to evaluate the anti-inflammatory potential and anti-irritant properties, as well as the ocular toxicity of compounds/formulations. The benefits of this test include its simplicity, rapid execution, ease of use, and relatively low cost.

[2] = test system: Candidozyma (Candida) auris COLO 01; assay: organism not typed; assay type: cell-based; conditions: 35 °C, 48 h, visual endpoint; for MIC: read-out: Minimal Inhibitory Concentration (MIC) C. auris
Method: (§1) Broth microdilution testing was conducted following the guidelines in the CLSI document M27-A3 (2008) with modifications. Briefly, the following yeast were used in the present study: C. albicans SC5314, C. tropicalis ATCC 750, Candidozyma (Candida) auris COLO 01, C. parapsilosis ATCC 22019, Pichia kudravzevii (C. krusei) ATCC 20298, C. gattii ATCC 24065, C. neoformans ATCC 24067, and S. brasiliensis (189). All fungus strains were stored at a temperature of −80 °C. Before conducting the experiments, the strains were cultivated on Sabouraud dextrose agar (HiMedia, Mumbai, India) at 35 °C to ensure their purity and viability. The yeast phase of S. brasiliensis was grown on brain–heart infusion agar (BHI; Difco, Detroit, MI, USA) with two successive passages of 7 days at 35 °C and CO2 5% [11]. The compounds were tested at concentrations of 0.125–250 µg/mL. For comparative antifungal controls, fluconazole (Sigma-Aldrich, St. Louis, MO, USA), itraconazole (Sigma-Aldrich, St. Louis, MO, USA), and caspofungine (Sigma-Aldrich, St. Louis, MO, USA) were included. The plates were incubated at 35 °C for 48 h for yeast and for 7 days for S. brasiliensis at 35 °C and CO2 5%. The tests were performed in triplicate. The endpoints were determined visually by comparison with the endpoints of the drug-free growth-control well. The value of the minimum inhibitory concentration (MIC) was defined as the lowest extract concentration at which the well was optically clear and was expressed in µg/mL.

[3] = test system: C. albicans SC5314; assay: Broth microdilution MIC (CLSI M27-A3 with modifications); assay type: cell-based; conditions: Candida albicans, 35 °C, 48 h, visual endpoint, read-out: Minimal Inhibitory Concentration (MIC) C. albicans
Method: as §1

[4] = test system: C. gattii ATCC 24065; assay: as above; assay type: cell-based; conditions: Cryptococcus gattii, ATCC24065; 35 °C, 48 h, visual endpoint; read-out: Minimal Inhibitory Concentration (MIC) C. gattii
Method: as §1

[5] = test system: C. neoformans ATCC 24067; assay: as above; assay type: cell-based; conditions: Cryptococcus neoformans, ATCC24067; 35 °C, 48 h, visual endpoint; read-out: Minimal Inhibitory Concentration (MIC) C. neoformans
Method: as §1

[6] = test system: C. parapsilosis ATCC 22019; assay: as above; assay type: cell-based; conditions: Lodderomyces parapsilosis, ATCC22019; 35 °C, 48 h, visual endpoint; read-out: Minimal Inhibitory Concentration (MIC) C. parapsilosis
Method: as §1

[7] = test system: C. tropicalis ATCC 750; assay: as above; assay type: cell-based; conditions: Candida tropicalis, ATCC750; 35 °C, 48 h, visual endpoint; read-out: Minimal Inhibitory Concentration (MIC) C. tropicalis
Method: as §1

[8] = test system: Pichia kudravzevii (C. krusei) ATCC 20298; assay: as above; assay type: cell-based; conditions: ATCC20298, 35 °C, 48 h, visual endpoint, read-out: Minimal Inhibitory Concentration (MIC) P. kudravzevii
Method: as §1

[9] = test system: S. brasiliensis (189); assay: Broth microdilution MIC (CLSI M27-A3 with modifications), yeast phase; assay type: cell-based; conditions: Sporothrix brasiliensis, 168 h, 7 days at 35 °C and CO2 5%, read-out: Minimal Inhibitory Concentration (MIC) S. brasiliensis
Method: as §1, with “The value of the minimum inhibitory concentration (MIC) was defined as the lowest extract concentration at which the well was optically clear and was expressed in µg/mL.” left out

[10] = Saturation shake-flask solubility method; assay type: physicochemical; conditions: for solubility at 24 h: aqueous USP buffer, thermodynamic from solid, n = 3, read-out: Average Solubility mg/mL (±SD)
Method: The equilibrium solubility of RW3 samples was assessed using the shake-flask method. The samples were dispersed in buffers described in the United States Pharmacopeia at pH values of 2.0, 4.5, and 6.8. For each reported solubility result, three independent shake-flask experiments were carried out in parallel. For each experiment, the solid sample was added carefully using a spatula to 2 mL of the aqueous buffer in a glass vial, while stirring, until a heterogeneous system (solid sample and liquid) was obtained. The solution containing solid excess of the sample was then capped, and stirred at 37 °C, 100 rpm, for 24 h in orbital shaker (Tecnal, Campinas, Brazil). An aliquot of 1 mL of the suspension was centrifuged, and the supernatant was then collected and filtered through a 0.2 µm PVDF filter. The resulting solution was then diluted 200× in the mobile phase, and the concentration of the sample in each aliquot was measured by the HPLC method. The RW3 concentrations were determined by injections of 10 µL of the samples via HPLC, using a Waters Alliance system (New Castle, DE, USA). Chromatographic separations were obtained using a PhenoSphere-NEXT® 5 µm C18 column (150 mm; 4,6 mm; Phenomenex®, Torrance, CA, USA) at 40° C. The mobile phase (1 mL/min) was composed of phosphate buffer 20 mM pH 4.0 and acetonitrile (50:50 v/v). The wavelength was set at 308 nm. The HPLC method employed was evaluated for linearity, precision, accuracy, and selectivity.
The determination of the solubility under physiological conditions, particularly considering the different pH levels throughout the gastrointestinal tract, is one of the most important biopharmaceutical parameters that must be generated during the early stages of developing a new drug for oral administration. In this study, the solubility determination of RW3 was carried out using the miniaturized shake flask test, as only a small amount of the compound under investigation was available. In the literature, there are publications that have successfully employed the miniaturized test.

[11] = In vitro Caco-2 cytotoxicity (MTT, ISO 10993-5); assay type: cell-based, human; conditions: human, Caco-2 cells, 4 h, MTT, read-out: cell viability
Method: (§2) In vitro cytotoxicity assays were carried out following the protocol outlined in the ISO 10993-5 guideline (ISO, 2022). The human colon carcinoma cell line, Caco-2 cells (from ATCC), were cultured in 96-well plates for 24 h at a seeding density of 2 × 10^4 cells/well. The RW3 compound was dissolved in DMEM without phenol to prepare samples of 10, 25, and 50 µg/mL concentrations. Six replicates of each concentration for RW3 were assessed. This range of concentrations was chosen for reasons associated with the subsequent permeability tests. The experiments began by replacing the culture medium in each well with 100 µL of sample or control solutions, followed by a 4 h incubation at 37 °C in a CO2 incubator. Then, the solutions in each well were aspirated, and the cells were further incubated for 2 h with 30 µL of MTT solution (5 mg/mL, Sigma–Aldrich Corp., St. Louis, MO, USA, in DMEM and PBS buffer, 9:1 v/v). Next, formazan crystals were solubilized with 70 µL of isopropyl alcohol acidified with hydrochloric acid and quantified spectrophotometrically at 570 and 690 nm (Spectra Fluor plate reader, Tecan, Grödig, Austria). Cell viability was calculated based on the measured absorbance relative to the absorbance of the cells exposed to the negative controls (DMEM), which represented 100% cell viability, and for the positive control, we employed DMSO 50% in DMEM, which represented 0% cell viability.

[12] = test system: Caco-2 cells; assay: In vitro Caco-2 cytotoxicity (MTT, ISO 10993-5); assay type: cell-based, human; conditions: 10, 25 and 50 µg/mL; non-cytotoxic if viability exceeds 70% (ISO 10993-5)
Method: as §2

[13] = In vitro Caco-2 permeability assay; assay type: in vitro ADME, human; conditions: human, Caco-2
Method: (§3) The Caco-2 cells (from ATCC) were cultured in 12-well Transwell® (Corning Incorporated, New York, NY, USA) insert filters for 21 days at a seeding density of 5 × 10^4 cells/cm^2 to achieve confluence and differentiation. The integrity of the monolayer was examined by measuring the transepithelial electrical resistance (TEER) with an epithelial voltammeter Millicell-ERS (Merck SA—German, Darmstadt, Germany). Only cell monolayers with a TEER above […] were used for the transport assays.
(§4) Transport experiments were conducted by adding 10 µg/mL RW3 in HBSS buffer at pH 6.8 to the apical compartments of the Transwell® plates (Corning, Corning, NY, USA), while the basolateral buffer was maintained at pH 7.4. The plates were agitated in an orbital shaker at 37 °C (100 rpm). Samples (100 µL) were collected from both the basolateral and apical sides at 30, 60, 90, 120, and 180 min. The apparent permeability coefficients (Papp, cm/s) were calculated using the Equation (2):Papp = […](2) where VR is the volume of the receiver compartment (basolateral or apical), DQ/Dt is the linear appearance rate of the compound on the receiver chamber (in ng/cm^3/s), A is the membrane surface area (cm^2), and C0 is the initial concentration in the donor compartment (ng/cm^3). This calculation requires that the sink conditions are fulfilled; therefore, only receiver concentrations below 10% of the donor concentration were employed in the calculations.

[14] = test system: Caco-2 cells; assay: In vitro Caco-2 permeability assay; assay type: in vitro ADME, human; conditions: high permeability: Papp > 10 × 10^−6 cm/s
Method: as §3, §4

Compound	MIC [3] [µg/mL]	MIC [4] [µg/mL]	MIC [5] [µg/mL]	MIC [6] [µg/mL]	MIC [7] [µg/mL]	MIC [8] [µg/mL]	MIC [2] [µg/mL]	MIC [9] [µg/mL]	Irritation Score [1]	Classification (irritation potential) [1]	further results
[Na+].[OH-] [0.1 M NaOH, NaOH, reference compound]									12.00	Severe irritant	
CC[C@H](C)C[C@H](C)CCCCCCCCC(=O)N[C@H]1C[C@@H](O)[C@@H](NCCN)NC(=O)[C@@H]2[C@@H](O)CCN2C(=O)[C@H]([C@H](O)CCN)NC(=O)[C@H]([C@H](O)[C@@H](O)c2ccc(O)cc2)NC(=O)[C@@H]2C[C@@H](O)CN2C(=O)[C@H]([C@@H](C)O)NC1=O [Caspofungin, caspofungine]											Minimal Inhibitory Concentration (MIC) C. auris [2]: 0.05 µg/mL

More lines, main results first:

MIC [3] [µg/mL]	MIC [4] [µg/mL]	MIC [5] [µg/mL]	MIC [6] [µg/mL]	MIC [7] [µg/mL]	MIC [8] [µg/mL]	MIC [2] [µg/mL]	MIC [9] [µg/mL]	Compound	Irritation Score [1]	Classification (irritation potential) [1]	further results
0.5 (≈ 1.63 µM)	2 (≈ 6.53 µM)	2 (≈ 6.53 µM)	1 (≈ 3.27 µM)	0.25 (≈ 0.816 µM)	32 (≈ 104 µM)	64 (≈ 209 µM)		OC(Cn1cncn1)(Cn1cncn1)c1ccc(F)cc1F [Fluconazole, fluconazole, reference compound]			
							0.5 (≈ 0.709 µM)	CCC(C)n1ncn(-c2ccc(N3CCN(c4ccc(OCC5COC(Cn6cncn6)(c6ccc(Cl)cc6Cl)O5)cc4)CC3)cc2)c1=O (stereo not drawn) [Itraconazole, itraconazole, reference compound]			
31.3 (≈ 115 µM)	7.8 (≈ 28.8 µM)	3.9 (≈ 14.4 µM)	125 (≈ 461 µM)	125 (≈ 461 µM)	15.6 (≈ 57.5 µM)	15.6 (≈ 57.5 µM)	15.6 (≈ 57.5 µM)	CCOC(=O)Cc1csc(N/N=C(\C)C(=O)O)n1 [RW3, (E)-2-(2-(4-(2-Ethoxy-2-oxoethyl)thiazol-2-yl)hydrazineylidene)-Propanoic Acid]	0.76	Non-irritant	solubility at 24 h ([10]; aqueous buffer, buffer pH 4.5, 37 °C): 1.01 ± 0.01 mg/mL (≈ 3720 µM); solubility at 24 h ([10]; aqueous buffer, buffer pH 6.8, 37 °C): 2.76 ± 0.09 mg/mL (≈ 10200 µM); solubility at 24 h ([10]; simulated gastric fluid, buffer pH 2.0, 37 °C): 0.67 ± 0.001 mg/mL (≈ 2470 µM); maximum daily dose borderline for high solubility classification (BCS, dose/S0 ratio less than 250) ([10]; extrapolated from lowest solubility (pH 2.0)): 168 mg; viability at 4 h, 10 µg/mL ([11]; Caco-2, 10 µg/mL): 100%; viability at 4 h, 25 µg/mL ([11]; Caco-2, 25 µg/mL): 88%; viability at 4 h, 50 µg/mL ([11]; Caco-2, 50 µg/mL): 86%; cytotoxic effects on the Caco-2 cell line [12]: no cytotoxic effects; Papp A→B at 180 min, 10 µg/mL ([13]; apical−basolateral, 10 µg/mL, apical pH 6.8, basolateral pH 7.4, n = 3): 23.1 ± 9.69 ×10⁻⁶ cm/s; Papp B→A at 180 min, 10 µg/mL ([13]; basolateral−apical, 10 µg/mL, n = 3): 17.7 ± 7.19 ×10⁻⁶ cm/s; efflux ratio at 180 min, 10 µg/mL ([13]; read-out: Ratio Efflux Papp B-A/Papp A-B): 0.76; permeability characterization (BCS) [14]: high permeability compound
